Test results: US20240173249A1, “COSMETIC COMPOSITION CONTAINING BEE POLLEN EXOSOME” (LG HOUSEHOLD & HEALTH CARE LTD., priority 2022, published 2024)

How the values were obtained:
Type in all cases: cell-based
Raw 264.7 cells = assay: NO production inhibition, LPS-treated cells, NO quantification kit; conditions: positive control, 200 ppm
Procedure: In order to verify the skin soothing and anti-inflammatory effects of the bee pollen exosome raw material prepared in Preparation Example 2, the NO production inhibitory effect was measured as follows, and compared with those of the pollen extract raw material, the bee pollen extract raw material, and the plant-derived exosome raw material which are the control groups.
In detail, the NO production inhibitory effects of the above samples were measured using Raw 264.7 cells. As a positive control, 20 mg/ml L-NMMA1 (NOS inhibitor) was used, and the samples were diluted to 0.01% and 0.1% concentrations (v/v %) and treated for 30 minutes, followed by treatment with 1 μg/ml LPS and culturing for 24 hours. Then, the ability to inhibit NO production was evaluated using a NO quantification kit as follows. All results were expressed as mean±standard deviation (SD) after three or more independent experiments.
NO production inhibitory ability (%)=(1−([…] NO production amount with sample addition))/(NO production amount without sample addition)×100

B16f10 melanocytes = assay: Melanin production inhibition in melanocytes; conditions: Mus musculus, B16-F10, positive control, read-out: inhibition of melanin synthesis
Procedure: In order to verify the whitening effect of the bee pollen exosome raw material prepared in Preparation Example 2, the melanin production-inhibitory effect was measured as follows.
In detail, the whitening efficacy of the bee pollen exosome raw material was evaluated by measuring the degree of reduction in the amount of melanin pigment present in melanocytes. The bee pollen exosome raw material was diluted to 0.01% and 0.1% concentrations (v/v %), and B16f10 melanocytes were treated therewith, and cultured for 72 hours, and melanin was quantified to evaluate the whitening efficacy. The melanin content was calculated based on the total protein amount, and the melanin production inhibition rate was calculated as %, based on a DMSO control group. 200 ppm of arbutin was treated as a positive control group.
In detail, the bee pollen extract raw material was prepared by grinding the same amount of bee pollens in the same manner as in preparing the bee pollen exosome, and by extracting using a general low-temperature extraction method of using purified water for 24 hours to 72 hours under the same temperature conditions (4° C. to 25° C.). […]

[1] = system: human dermal fibroblast (HDF) cells; assay: Collagen synthesis efficacy (procollagen type I C-peptide EIA); conditions: positive control, 10 ng/ml, compared to untreated group
Procedure: To verify the collagen synthesis effect of the bee pollen exosome raw material prepared in Preparation Example 2, measurements were performed as follows.
In detail, the collagen synthesis effect was evaluated using human dermal fibroblast (HDF) cells. After pre-treating the cells with the bee pollen exosome raw material sample for 48 hours, collagen synthesis efficacy was measured using a human procollagen type I C-peptide (PIP) EIA kit. The collagen synthesis efficacy of the sample was determined by calculating the increased value in percentage (%), as compared to the untreated control group, and the results are shown in a table. 10 ng/ml TGF-b was used as a positive control group.
All of the above samples were diluted to 0.01% and 0.1% concentrations (v/v %) and evaluated.

In the case of CNC(=N)NCCC[C@H](N)C(=O)O [L-NMMA1], the “NO production inhibition ability” value (Raw 264.7 cells) is reported as 59.17%.
OC[C@H]1O[C@@H](Oc2ccc(O)cc2)[C@H](O)[C@@H](O)[C@@H]1O [arbutin] showed an inhibition at 200 ppm (B16f10 melanocytes) of 38.1%.
With “TGF-b: 10 ng/ml TGF-b used as positive control for collagen synthesis” the collagen synthesis increase [1] was 29.87%.
